According to the NIST ThermoML archive (doi:10.1021/je3011634):
Numbers after ± are expanded uncertainties.

Assay: xn = mol fraction of the nth substance listed
Conditions: 101 kPa, Liquid; for viscosity: Capillary tube (Ostwald / Ubbelohde) method; for mass density: Vibrating tube method

CC(C)CO [2-methyl-1-propanol] + CCCO
Conditions	mass density, 293.15 K [kg/m3]	mass density, 303.15 K [kg/m3]	mass density, 313.15 K [kg/m3]	mass density, 323.15 K [kg/m3]	mass density, 333.15 K [kg/m3]	viscosity, 293.15 K [mPa·s]	viscosity, 303.15 K [mPa·s]	viscosity, 313.15 K [mPa·s]	viscosity, 323.15 K [mPa·s]	viscosity, 333.15 K [mPa·s]
x1 = 0.1038	803.39 ± 0.15	795.39 ± 0.15	787.25 ± 0.15	778.91 ± 0.16	770.34 ± 0.16	2.147 ± 0.1	1.586 ± 0.1	1.079 ± 0.1	0.835 ± 0.1	0.508 ± 0.1
x1 = 0.1962	803.24 ± 0.15	795.27 ± 0.16	787.16 ± 0.16	778.85 ± 0.16	770.31 ± 0.16	2.269 ± 0.1	1.657 ± 0.1	1.14 ± 0.1	0.88 ± 0.1	0.545 ± 0.1
x1 = 0.2944	803.09 ± 0.16	795.15 ± 0.16	787.07 ± 0.16	778.79 ± 0.16	770.27 ± 0.17	2.413 ± 0.1	1.744 ± 0.1	1.21 ± 0.1	0.93 ± 0.1	0.588 ± 0.1
x1 = 0.4058	802.91 ± 0.17	795.01 ± 0.17	786.96 ± 0.17	778.71 ± 0.17	770.2 ± 0.17	2.594 ± 0.1	1.855 ± 0.1	1.297 ± 0.1	0.991 ± 0.1	0.641 ± 0.1
x1 = 0.504	802.75 ± 0.17	794.88 ± 0.18	786.86 ± 0.18	778.62 ± 0.18	770.13 ± 0.18	2.768 ± 0.1	1.967 ± 0.1	1.382 ± 0.1	1.052 ± 0.1	0.693 ± 0.1
x1 = 0.6041	802.58 ± 0.18	794.74 ± 0.19	786.74 ± 0.19	778.52 ± 0.19	770.04 ± 0.19	2.961 ± 0.1	2.099 ± 0.1	1.487 ± 0.1	1.126 ± 0.1	0.753 ± 0.1
x1 = 0.7019	802.41 ± 0.2	794.59 ± 0.2	786.61 ± 0.2	778.41 ± 0.2	769.94 ± 0.2	3.172 ± 0.1	2.253 ± 0.1	1.611 ± 0.1	1.217 ± 0.1	0.83 ± 0.1
x1 = 0.8072	802.21 ± 0.21	794.41 ± 0.21	786.45 ± 0.21	778.26 ± 0.21	769.8 ± 0.21	3.452 ± 0.1	2.448 ± 0.1	1.767 ± 0.1	1.335 ± 0.1	0.928 ± 0.1
x1 = 0.8996	–	794.24 ± 0.22	786.29 ± 0.22	778.11 ± 0.22	769.64 ± 0.23	–	2.643 ± 0.1	1.914 ± 0.1	1.446 ± 0.1	1.018 ± 0.1

NCCCO [3-amino-1-propanol] + CCCO
Conditions	mass density, 293.15 K [kg/m3]	mass density, 303.15 K [kg/m3]	mass density, 313.15 K [kg/m3]	mass density, 323.15 K [kg/m3]	mass density, 333.15 K [kg/m3]	viscosity, 293.15 K [mPa·s]	viscosity, 303.15 K [mPa·s]	viscosity, 313.15 K [mPa·s]	viscosity, 323.15 K [mPa·s]	viscosity, 333.15 K [mPa·s]
x1 = 0.1088	826.73 ± 0.15	818.68 ± 0.15	810.49 ± 0.15	802.16 ± 0.15	793.63 ± 0.15	2.978 ± 0.1	2.081 ± 0.1	1.401 ± 0.1	0.999 ± 0.1	0.579 ± 0.1
x1 = 0.2019	845.91 ± 0.15	837.85 ± 0.15	829.65 ± 0.15	821.33 ± 0.15	812.86 ± 0.16	4.164 ± 0.1	2.839 ± 0.1	2.061 ± 0.1	1.474 ± 0.1	–
x1 = 0.2993	865.53 ± 0.16	857.43 ± 0.16	849.23 ± 0.16	840.93 ± 0.16	832.49 ± 0.16	5.873 ± 0.11	3.89 ± 0.1	2.864 ± 0.1	2.11 ± 0.1	1.266 ± 0.1
x1 = 0.4099	886.82 ± 0.17	878.7 ± 0.17	870.51 ± 0.17	862.22 ± 0.17	853.84 ± 0.17	8.435 ± 0.11	5.443 ± 0.11	3.97 ± 0.1	2.95 ± 0.1	1.828 ± 0.1
x1 = 0.5002	903.78 ± 0.18	895.67 ± 0.18	887.49 ± 0.18	879.21 ± 0.18	870.85 ± 0.19	11.26 ± 0.12	7.04 ± 0.11	5.05 ± 0.1	3.657 ± 0.1	2.352 ± 0.1
x1 = 0.6014	922.34 ± 0.18	914.25 ± 0.18	906.08 ± 0.18	897.8 ± 0.2	889.48 ± 0.18	15.35 ± 0.13	9.477 ± 0.11	6.59 ± 0.11	4.685 ± 0.1	3.105 ± 0.1
x1 = 0.6995	939.59 ± 0.18	931.51 ± 0.18	923.4 ± 0.18	915.21 ± 0.19	907.01 ± 0.19	20.08 ± 0.15	12.29 ± 0.12	8.276 ± 0.11	5.816 ± 0.11	3.907 ± 0.1
x1 = 0.8091	958.11 ± 0.19	950.09 ± 0.2	942.03 ± 0.2	933.93 ± 0.2	925.77 ± 0.2	26.44 ± 0.18	15.93 ± 0.14	10.5 ± 0.12	7.232 ± 0.11	4.917 ± 0.11
x1 = 0.9003	972.64 ± 0.21	964.64 ± 0.21	956.59 ± 0.21	948.49 ± 0.21	940.36 ± 0.21	32.71 ± 0.22	19.52 ± 0.16	12.63 ± 0.13	8.57 ± 0.11	5.829 ± 0.11

CC(C)CO [2-methyl-1-propanol] + CC(C)O
Conditions	mass density, 293.15 K [kg/m3]	mass density, 303.15 K [kg/m3]	mass density, 313.15 K [kg/m3]	mass density, 323.15 K [kg/m3]	mass density, 333.15 K [kg/m3]	viscosity, 293.15 K [mPa·s]	viscosity, 303.15 K [mPa·s]	viscosity, 313.15 K [mPa·s]	viscosity, 323.15 K [mPa·s]	viscosity, 333.15 K [mPa·s]
x1 = 0.1495	788.29 ± 0.17	779.93 ± 0.18	771.29 ± 0.18	762.29 ± 0.18	752.87 ± 0.18	2.45 ± 0.1	1.817 ± 0.1	1.259 ± 0.1	0.983 ± 0.1	0.648 ± 0.1
x1 = 0.2001	789.25 ± 0.18	780.93 ± 0.18	772.34 ± 0.18	763.4 ± 0.18	754.05 ± 0.18	2.498 ± 0.1	1.839 ± 0.1	1.28 ± 0.1	0.999 ± 0.1	0.663 ± 0.1
x1 = 0.3	791.09 ± 0.18	782.85 ± 0.18	774.35 ± 0.19	765.53 ± 0.19	756.31 ± 0.19	2.621 ± 0.1	1.907 ± 0.1	1.331 ± 0.1	1.035 ± 0.1	0.696 ± 0.1
x1 = 0.4249	793.26 ± 0.19	785.12 ± 0.19	776.74 ± 0.19	768.04 ± 0.19	758.97 ± 0.2	2.81 ± 0.1	2.021 ± 0.1	1.418 ± 0.1	1.095 ± 0.1	0.745 ± 0.1
x1 = 0.5189	794.8 ± 0.2	786.73 ± 0.2	778.43 ± 0.2	769.83 ± 0.2	760.87 ± 0.2	2.976 ± 0.1	2.131 ± 0.1	1.505 ± 0.1	1.158 ± 0.1	0.794 ± 0.1
x1 = 0.6202	796.38 ± 0.2	788.38 ± 0.21	780.17 ± 0.21	771.67 ± 0.21	762.82 ± 0.21	3.184 ± 0.1	2.271 ± 0.1	1.617 ± 0.1	1.237 ± 0.1	0.857 ± 0.1
x1 = 0.7166	797.83 ± 0.21	789.9 ± 0.21	781.76 ± 0.21	773.35 ± 0.22	764.6 ± 0.22	3.395 ± 0.1	2.417 ± 0.1	1.732 ± 0.1	1.32 ± 0.1	0.921 ± 0.1
x1 = 0.8005	799.06 ± 0.22	791.18 ± 0.22	783.1 ± 0.22	774.76 ± 0.22	766.09 ± 0.22	3.594 ± 0.1	2.547 ± 0.1	1.837 ± 0.1	1.394 ± 0.1	0.979 ± 0.1
x1 = 0.9001	800.47 ± 0.23	792.65 ± 0.23	784.64 ± 0.23	776.38 ± 0.23	767.81 ± 0.23	3.838 ± 0.1	2.709 ± 0.1	1.963 ± 0.1	1.483 ± 0.1	1.051 ± 0.1
